Assay results reported in patent US5336673A, “3-substituted cephem compounds” (priority 1990, dated 1994).
Converted amounts (≈) assume the structure as drawn. Read-outs that look alike come from different tables or passages of the source.

How the values were obtained:
Format in all cases: cell-based
[1] = system: Streptococcus pyogenes A 308; assay: Antibacterial activity, MIC by Agar dilution method, standard test strain 1; conditions: A308, 10^7 CFU/ml, 37° C., 18 hours
Method: (§1) The antibacterial activity was determined by an Agar dilution method as described below.
(§2) That is, the two-fold serial dilutions of the antibacterial compounds (1000 μg compound/ml) were prepared and dispersed in Muller Hinton Agar in a petri dish to a concentration of 100~0.002 μg/ml. The culture broths of standard test strains were inoculated on the medium to a concentration 10^7 CFU/ml, and incubated at 37° C. for 18 hours. The concentration of compounds(I) at which the strains were not grown was regarded as minimum inhibition concentration (MIC).
(§3) The results of antibacterial activity test of the representative examples of the compound (I) against 20 standard test strains shown in terms of MIC were indicated in Table 1.
1. Streptococcus pyogenes A 308

[2] = system: Pseudomonas aeruginosa 9027; assay: Antibacterial activity, MIC by Agar dilution method, standard test strain 12; conditions: 10^7 CFU/ml, 37° C., 18 hours
Method: as §1, §2, §3
12. Pseudomonas aeruginosa 9027

[3] = system: Enterobacter cloacae 1321E; assay: Antibacterial activity, MIC by Agar dilution method, standard test strain 20; conditions: Enterobacter cloacae 1321E; 10^7 CFU/ml, 37° C., 18 hours; read-out: MIC
Method: as §1, §2, §3
20. Enterobacter cloacae 1321E

[4] = system: Staphylococcus aureus SG 511; assay: Antibacterial activity, MIC by Agar dilution method, standard test strain 4; conditions: SG511, 10^7 CFU/ml, 37° C., 18 hours
Method: as §1, §2, §3
4. Staphylococcus aureus SG 511

Escherichia coli DC 2 = assay: Antibacterial activity, MIC by Agar dilution method, standard test strain 9; conditions: DC2; Escherichia coli DC 2; 10^7 CFU/ml, 37° C., 18 hours; read-out: MIC
Method: as §1, §2, §3

[5] = system: Pseudomonas aeruginosa 1592E; assay: Antibacterial activity, MIC by Agar dilution method, standard test strain 13; conditions: 10^7 CFU/ml, 37° C., 18 hours
Method: as §1, §2, §3
13. Pseudomonas aeruginosa 1592E

[6] = system: Staphylococcus aureus 503; assay: Antibacterial activity, MIC by Agar dilution method, standard test strain 6; conditions: 10^7 CFU/ml, 37° C., 18 hours
Method: as §1, §2, §3
6. Staphylococcus aureus 503

Escherichia coli 1507E = assay: Antibacterial activity, MIC by Agar dilution method, standard test strain 11; conditions: Escherichia coli 1507E; 10^7 CFU/ml, 37° C., 18 hours; read-out: MIC
Method: as §1, §2, §3

[7] = system: Streptococcus pyogenes A 77; assay: Antibacterial activity, MIC by Agar dilution method, standard test strain 2; conditions: A77, 10^7 CFU/ml, 37° C., 18 hours
Method: as §1, §2, §3
2. Streptococcus pyogenes A 77

[8] = system: Pseudomonas aeruginosa 1771; assay: Antibacterial activity, MIC by Agar dilution method, standard test strain 14; conditions: 10^7 CFU/ml, 37° C., 18 hours
Method: as §1, §2, §3
14. Pseudomonas aeruginosa 1771

[9] = system: Pseudomonas aeruginosa 1771M; assay: Antibacterial activity, MIC by Agar dilution method, standard test strain 15; conditions: 18 h
Method: as §1, §2, §3
15. Pseudomonas aeruginosa 1771M

Escherichia coli O 55 = assay: Antibacterial activity, MIC by Agar dilution method, standard test strain 7
Method: as §1, §2, §3

[10] = system: Klebsiella aerogenes 1522E; assay: Antibacterial activity, MIC by Agar dilution method, standard test strain 18; conditions: Klebsiella aerogenes 1522E; 10^7 CFU/ml, 37° C., 18 hours; read-out: MIC
Method: as §1, §2, §3
18. Klebsiella aerogenes 1522E

Escherichia coli DC O = assay: Antibacterial activity, MIC by Agar dilution method, standard test strain 8
Method: as §1, §2, §3

Klebsiella oxytoca 1082E = assay: Antibacterial activity, MIC by Agar dilution method, standard test strain 17; conditions: 10^7 CFU/ml, 37° C., 18 hours
Method: as §1, §2, §3

Enterobacter cloacae P99 = assay: Antibacterial activity, MIC by Agar dilution method, standard test strain 19; conditions: P99, 18 h
Method: as §1, §2, §3
19. Enterobacter cloacae P99

[11] = system: Gram-positive strains as well as Gram-negative strains including Pseudomonas; assay: Antibacterial activity (summary in words); conditions: Gram-positive and Gram-negative strains
Method: as §1, §2

[12] = system: Streptococcus faecium MD 86; assay: Antibacterial activity, MIC by Agar dilution method, standard test strain 3; conditions: Enterococcus faecium, MD86, 10^7 CFU/ml, 37° C., 18 hours
Method: as §1, §2, §3
3. Streptococcus faecium MD 86

Escherichia coli TEM = assay: Antibacterial activity, MIC by Agar dilution method, standard test strain 10; conditions: Escherichia coli TEM; 10^7 CFU/ml, 37° C., 18 hours; read-out: MIC
Method: as §1, §2, §3

Salmonella typhimurium = assay: Antibacterial activity, MIC by Agar dilution method, standard test strain 16; conditions: Salmonella enterica, 10^7 CFU/ml, 37° C., 18 hours
Method: as §1, §2, §3
16. Salmonella typhimurium

Staphyloccus aureus 285 = assay: Antibacterial activity, MIC by Agar dilution method, standard test strain 5; conditions: 10^7 CFU/ml, 37° C., 18 hours
Method: as §1, §2, §3
5. Staphyloccus aureus 285

[13] = Escherichia coli DC O, 10^7 CFU/ml, 37° C., 18 hours, read-out: MIC

Compound | MIC [1] [µg/mL] | MIC [2] [µg/mL] | MIC [3] [µg/mL] | MIC [4] [µg/mL] | MIC (Escherichia coli DC 2) [µg/mL] | MIC [5] [µg/mL] | MIC [6] [µg/mL] | MIC (Escherichia coli 1507E) [µg/mL] | MIC [7] [µg/mL] | MIC [8] [µg/mL] | MIC [9] [µg/mL] | MIC (Escherichia coli O 55; Escherichia coli, O55, 18 h) [µg/mL] | MIC [10] [µg/mL] | MIC (Klebsiella oxytoca 1082E) [µg/mL] | MIC (Enterobacter cloacae P99) [µg/mL] | antibacterial activity (in words) [11] | MIC [12] [µg/mL] | MIC (Escherichia coli TEM) [µg/mL] | MIC (Salmonella typhimurium) [µg/mL] | MIC (Staphyloccus aureus 285) [µg/mL] | other results
CO/N=C(\C(=O)N[C@@H]1C(=O)N2C(C(=O)[O-])=C(C[N+]3(N)CCCC3)CS[C@H]12)c1csc(N)n1 [Example 1, (6R,7R)-7-[(Z)-2-(2-aminothiazol-4-yl)-2-methoxyiminoacetamido]-3-(1-aminopyrrolidiniummethyl)ceph-3-em-4-carboxylate] | 0.025 (≈ 0.0519 µM) | 100 (≈ 208 µM) | 0.098 (≈ 0.204 µM) | 6.26 (≈ 13 µM) | 0.391 (≈ 0.812 µM) | 100 (≈ 208 µM) | 1.56 (≈ 3.25 µM) | 0.391 (≈ 0.812 µM) | 0.025 (≈ 0.0519 µM) | 50 (≈ 104 µM) | 3.12 (≈ 6.49 µM) | 0.195 (≈ 0.405 µM) | 0.195 (≈ 0.405 µM) | 12.5 (≈ 26 µM) | > 100 | excellent antibacterial activity | > 100 | 0.391 (≈ 0.812 µM) | 0.781 (≈ 1.62 µM) | 12.5 (≈ 26 µM) | MIC (Escherichia coli DC O; [13]): 0.195 µg/mL (≈ 0.405 µM)
CO/N=C(\C(=O)N[C@@H]1C(=O)N2C(C(=O)[O-])=C(C[N+]3(N)CCc4ccccc4C3)CS[C@H]12)c1csc(N)n1 (stereo partly drawn) [Example 5, (6R,7R)-7-[(Z)-2-(2-aminothiazol-4-yl)-2-methoxyiminoacetamido]-3-[(2-amino-1,2,3,4-tetrahydroisoquinolin-2-ium)methyl]-ceph-3-em-4-carboxylate] | 0.049 (≈ 0.0901 µM) | 50 (≈ 92 µM) | 0.013 (≈ 0.0239 µM) | 1.56 (≈ 2.88 µM) | 0.781 (≈ 1.44 µM) | 50 (≈ 92 µM) | 0.781 (≈ 1.44 µM) | 0.781 (≈ 1.44 µM) | 0.013 (≈ 0.0239 µM) | 50 (≈ 92 µM) | 1.56 (≈ 2.88 µM) | 0.391 (≈ 0.719 µM) | 0.013 (≈ 0.0239 µM) | 12.5 (≈ 23 µM) | 100 (≈ 184 µM) | excellent antibacterial activity | 50 (≈ 92 µM) | 0.781 (≈ 1.44 µM) | 0.781 (≈ 1.44 µM) | 6.25 (≈ 11.5 µM) | MIC (Escherichia coli DC O; [13]): 0.391 µg/mL (≈ 0.719 µM)
CO/N=C(\C(=O)N[C@@H]1C(=O)N2C(C(=O)[O-])=C(CN3CC[N+](C)(N)CC3)CS[C@H]12)c1csc(N)n1 [Example 11, (6R,7R)-7-[(Z)-2-(2-aminothiazol-4-yl)-2-methoxyiminoacetamido]-3-[(1-amino-1-methyl-4-piperazinium)methyl]-ceph-3-em-4-carboxylate] | 0.013 (≈ 0.0255 µM) | 50 (≈ 97.9 µM) | 0.195 (≈ 0.382 µM) | 1.56 (≈ 3.06 µM) | 0.781 (≈ 1.53 µM) | 50 (≈ 97.9 µM) | 0.781 (≈ 1.53 µM) | 0.781 (≈ 1.53 µM) | 0.007 (≈ 0.0137 µM) | 25 (≈ 49 µM) | 1.56 (≈ 3.06 µM) | – | 0.391 (≈ 0.766 µM) | 6.25 (≈ 12.2 µM) | 100 (≈ 196 µM) | excellent antibacterial activity | > 100 | 0.391 (≈ 0.766 µM) | 0.391 (≈ 0.766 µM) | 12.5 (≈ 24.5 µM) | MIC (Escherichia coli O 55; O55, Escherichia coli O 55, 10^7 CFU/ml, 37° C., 18 hours, read-out: MIC): 0.195 µg/mL (≈ 0.382 µM); MIC (Escherichia coli DC O; Escherichia coli, 18 h): 0.781 µg/mL (≈ 1.53 µM)
